Key:
[1] = test system: MCAO operation-injured rats; experiment: MCAO model, rCBF of the rat acute cerebral ischemia tissue; format: in vivo; conditions: 30 minutes after the cerebral ischemia, 3 mg/kg
Description: Assay Method: The assay was conducted according to the MCAO model method as reported in the literature (Zhang Juntian, Modern Experimental Methods in Pharmacology, October 1998, the First Edition, the United Press of Beijing Medical University and Peking Union Medical College).
The rCBF (regional cerebral blood flow) value in the cortex medium-sized arterial blood-supplying area reduced rapidly to 20˜30% of the pre-operation basal level because of the MCAO operation. 24 hours after ischemia (pre-decapitation), the collateral circulation compensation established and the rCBF value increased a little compared with the value during the operation, but still below 50% of the basal level.
30 minutes after the cerebral ischemia, the rCBF value of the vehicle group was 31.09±5.35% of the basal value, and the rCBF values of the administration groups, i.e., the inclusion complex DL0108 group (1 mg/kg, 3 mg/kg, 10 mg/kg) and the nimodipine group, were 40.76±6.58%, 50.09±7.09%, 53.28±8.03%, 55.58±6.09% of the basal value respectively. […] The DL0108 (3, 10 mg/kg) group and the nimodipine (3 mg/kg) group had significant differences from the vehicle group (P<0.05).

[2] = Determination of the solubility of pinocembrin; format: physicochemical; conditions: water
Description: Through using cyclodextrin or its derivative to include pinocembrin and make pinocembrin molecules entrap in the tubular structure of cyclodextrin or its derivative, and therefore obtain the inclusion complex of pinocembrin with cyclodextrin or its derivative, the water-solubility of pinocembrin is enhanced greatly. […] The specific results are shown in Example 10.
In order to screen solubilizer, cosolvent and non-aqueous solvent useful for injection, a series of experiments were conducted with their general dosages respectively to determine the solubilization effect of pinocembrin.
The solubilities in Table 1 are the solubilities of pinocembrin.

| solubility [2] | Structure (SMILES) | rCBF value [1] |
| --- | --- | --- |
|  | COCCOC(=O)C1=C(C)NC(C)=C(C(=O)OC(C)C)C1c1cccc([N+](=O)[O-])c1 (centres unmarked) [nimodipine] | 55.58±6.09 % of the basal value |
| < 200 µg/mL | O=C1CC(c2ccccc2)Oc2cc(O)cc(O)c21 (centres unmarked) [pinocembrin, 2,3-Dihydro-5,7-dihydroxy-2-phenyl-4H-1-benzopyran-4-one] |  |
